Experiments:
Assay type in all cases: in vivo
[1] = test system: Sinapis; experiment: Post-emergent herbicidal action (contact herbicide); set-up: key: 1=complete damage; 9=no action; Ratings of 1 to 4 (in particular 1 to 3) mean a good to very good herbicidal action; conditions: 2000 g of active substance/ha, sprayed in the 4- to 6-leaf stage, evaluated after about 18 days, ratings scale 1-9
Experimental: (§1) Monocotyledon and dicotyledon test plants are grown in plastic pots with standard soil in a greenhouse and, in the 4- to 6-leaf stage, are sprayed with an aqueous suspension of the test substances of the formula 1, prepared from a 25% wettable power (Example F3, b)), corresponding to a dosage of 2000 g of active substance/ha (500 l of water/ha). The test plants are then grown further in the greenhouse under optimum conditions. After a test period of about 18 days, the test is evaluated with a ratings scale of 9 levels (1=complete damage, 9=no action). Ratings of 1 to 4 (in particular 1 to 3) mean a good to very good herbicidal action.
(§2) Test plants: Sinapis, Stellaria

[2] = test system: Stellaria; experiment: as above; set-up: key: 1=complete damage; 9=no action; Ratings of 1 to 4 (in particular 1 to 3) mean a good to very good herbicidal action; conditions: 2000 g of active substance/ha, sprayed in the 4- to 6-leaf stage, evaluated after about 18 days, ratings scale 1-9
Experimental: as §1, §2

[3] = test system: Avena; experiment: Herbicidal action before emergence of the plants (pre-emergent action); conditions: 2000 g of active substance/ha, sprayed immediately after sowing, evaluated after 3 weeks, ratings scale of nine levels (1=complete damage, 9=no action)
Experimental: (§3) Monocotyledon and dicotyledon test plants are sown in standard soil in plastic pots. Immediately after sowing, the test substances are sprayed on (500 l of water/ha) in an aqueous suspension prepared from a 25% wettable powder (Example F3, b)), corresponding to a dosage of 2000 g of active substance/ha. The test plants are then grown under optimum conditions in a greenhouse. After a test period of 3 weeks, the test is evaluated with a ratings scale of nine levels (1=complete damage, 9=no action). Ratings of 1 to 4 (in particular 1 to 3) mean a good to very good herbicidal action.
(§4) Test plants: Avena, Setaria, Sinapis, Stellaria

[4] = test system: Setaria; experiment: as above; set-up: key: 1=complete damage; 9=no action; Ratings of 1 to 4 (in particular 1 to 3) mean a good to very good herbicidal action; conditions: 2000 g of active substance/ha, sprayed immediately after sowing, evaluated after 3 weeks, ratings scale of nine levels
Experimental: as §3, §4

[5] = test system: Sinapis; experiment: as above; set-up: key: 1=complete damage; 9=no action; Ratings of 1 to 4 (in particular 1 to 3) mean a good to very good herbicidal action; conditions: 2000 g of active substance/ha, sprayed immediately after sowing, evaluated after 3 weeks, ratings scale of nine levels
Experimental: as §3, §4

[6] = test system: Stellaria; experiment: as above; set-up: key: 1=complete damage; 9=no action; Ratings of 1 to 4 (in particular 1 to 3) mean a good to very good herbicidal action; conditions: 2000 g of active substance/ha, sprayed immediately after sowing, evaluated after 3 weeks, ratings scale of nine levels
Experimental: as §3, §4

SMILES	Post-emergent action, rating, Sinapis [1]	Post-emergent action, rating, Stellaria [2]	Pre-emergent action, rating, Avena [3]	Pre-emergent action, rating, Setaria [4]	Pre-emergent action, rating, Sinapis [5]	Pre-emergent action, rating, Stellaria [6]
NC1=NC(Oc2c(F)c(F)c(F)c(F)c2F)=NS(N2CC[C@H]3CCC[C@H]32)=N1 (relative stereo) [6.6]	2	4	–	–	–	–
NC1=NC(Oc2c(F)c(F)c(F)c(F)c2F)=NS(N2CC[C@H]3CCC[C@H]32)=N1 (relative stereo) [6.10]	–	–	4	4	1	1
NC1=NC(Oc2c(F)c(F)c(F)c(F)c2F)=NS(N2CCC[C@H]3CCC[C@H]32)=N1 (relative stereo) [6.27]	2	3	4	3	2	1
NC1=NC(Oc2cc(F)ccc2F)=NS(N2CC[C@H]3CCCC[C@H]32)=N1 (relative stereo) [6.120]	2	4	–	–	–	–
NC1=NS(N2CCC[C@H]3CCCC[C@H]32)=NC(Oc2c(F)c(F)cc(F)c2F)=N1 (relative stereo) [6.331]	1	2	4	2	1	1
CC1CN(S2=NC(N)=NC(Oc3c(F)c(F)c(F)c(F)c3F)=N2)CCC(C)(C)C1 (single isomer, unassigned) [6.92]	1	1	4	1	1	1
CC1CN(S2=NC(N)=NC(Oc3c(F)c(F)c(F)c(F)c3F)=N2)CCC(C)(C)C1 (single isomer, unassigned) [6.93]	1	1	2	1	1	1
CC1(C)CC2CC(C)(CN2S2=NC(N)=NC(Oc3c(F)c(F)c(F)c(F)c3F)=N2)C1 (single isomer, unassigned) [6.153]	1	2	4	3	1	1
CC1(C)CC2CC(C)(CN2S2=NC(N)=NC(Oc3c(F)c(F)c(F)c(F)c3F)=N2)C1 (single isomer, unassigned) [6.154]	1	1	4	1	1	1
CCC(C)(C)C1CCC(OS2=NC(N)=NC(Oc3c(F)c(F)c(F)c(F)c3F)=N2)CC1 (stereo not shown) [5.59]	1	3	–	–	–	–
NC1=NC(Oc2c(F)c(F)c(F)c(F)c2F)=NS(OCC23CC4CC(CC(C4)C2)C3)=N1 (stereo not shown) [5.85]	3	3	–	–	–	–
CC1CC(OS2=NC(N)=NC(Oc3c(F)c(F)c(F)c(F)c3F)=N2)CC(C)(C)C1 (stereo not shown) [5.86]	–	–	5	3	1	1
CC1CCCC(OS2=NC(N)=NC(Oc3c(F)c(F)c(F)c(F)c3F)=N2)C1 (stereo not shown) [5.141]	2	4	–	–	–	–
CC1(C)CC(OS2=NC(N)=NC(Oc3c(F)c(F)c(F)c(F)c3F)=N2)CC(C)(C)C1 (stereo not shown) [5.146]	–	–	4	1	1	1
CC1(C)C2CCC1(C)C(OS1=NC(N)=NC(Oc3c(F)c(F)c(F)c(F)c3F)=N1)C2 (stereo not shown) [5.154]	2	4	–	–	–	–
CC(C)(C)C1CCC(OS2=NC(N)=NC(Oc3c(F)c(F)c(F)c(F)c3F)=N2)CC1 (stereo not shown) [5.316]	2	4	–	–	–	–
CC1CCCC(OS2=NC(N)=NC(Oc3c(F)c(F)c(F)c(F)c3F)=N2)C1 (stereo not shown) [5.317]	–	–	4	2	2	1
CC1CCCC(OS2=NC(N)=NC(Oc3cc(F)ccc3F)=N2)C1 (stereo not shown) [5.318]	2	4	–	–	–	–
CC1CCC(OS2=NC(N)=NC(Oc3c(F)c(F)c(F)c(F)c3F)=N2)CC1 (stereo not shown) [5.327]	–	–	4	3	2	1
NC1=NC(OCC(Cl)(Cl)C(F)(F)F)=NS(OCCCl)=N1 (stereo not shown) [5.337]	1	5	–	–	–	–

SMILES	Post-emergent action, rating, Sinapis [1]	Post-emergent action, rating, Stellaria [2]	Pre-emergent action, rating, Avena [3]	Pre-emergent action, rating, Setaria [4]	Pre-emergent action, rating, Sinapis [5]	Pre-emergent action, rating, Stellaria [6]
CN(C1CCCCC1)S1=NC(N)=NC(Oc2c(F)c(F)c(F)c(F)c2F)=N1 (stereo not shown) [6.7]	2	3	–	–	–	–
NC1=NC(Oc2c(F)c(F)c(F)c(F)c2F)=NS(NC2CCCCC2)=N1 (stereo not shown) [6.17]	3	4	–	–	–	–
CCCN(CCC)S1=NC(N)=NC(Oc2c(F)c(F)c(F)c(F)c2F)=N1 (stereo not shown) [6.21]	2	4	–	–	–	–
CC1CC(C)CN(S2=NC(N)=NC(Oc3cc(F)ccc3F)=N2)C1 (stereo not shown) [6.23]	2	4	–	–	–	–
NC1=NC(Oc2c(F)c(F)c(F)c(F)c2F)=NS(N2CCCCC2)=N1 (stereo not shown) [6.53, 3-amino-5-pentafluorophenoxy-1-(piperidin-1-yl)thiatriazine]	–	–	3	3	1	1
NC1=NC(Oc2cc(F)ccc2F)=NS(N2CCCCCC2)=N1 (stereo not shown) [6.57]	2	4	–	–	–	–
CC1CCC(C)N1S1=NC(N)=NC(Oc2c(F)c(F)c(F)c(F)c2F)=N1 (stereo not shown) [6.63]	–	–	4	3	1	1
NC1=NC(Oc2c(F)c(F)c(F)c(F)c2F)=NS(N2CCN(c3ccccc3)CC2)=N1 (stereo not shown) [6.77]	–	–	4	3	1	1
NC1=NS(N2CC3CCC(CC3)C2)=NC(Oc2cc(F)ccc2F)=N1 (stereo not shown) [6.81]	2	3	–	–	–	–
CC1N(S2=NC(N)=NC(Oc3c(F)c(F)c(F)c(F)c3F)=N2)CCCC1(C)C (stereo not shown) [6.90]	2	4	–	–	–	–
NC1=NC(Oc2c(F)c(F)c(F)c(F)c2F)=NS(N2CCCC3CCCCCCC32)=N1 (stereo not shown) [6.102]	2	3	–	–	–	–
NC1=NC(Oc2cc(F)ccc2F)=NS(N2CCc3ccccc3CC2)=N1 (stereo not shown) [6.164]	1	3	–	–	–	–
CC1CC(NS2=NC(N)=NC(Oc3c(F)c(F)c(F)c(F)c3F)=N2)CC(C)(C)C1 (stereo not shown) [6.168]	2	3	–	–	–	–
NC1=NS(N2CCCCCCCCCCCC2)=NC(Oc2c(F)c(F)c(F)c(F)c2F)=N1 (stereo not shown) [6.177]	2	2	–	–	–	–
CC12CCCCC1N(S1=NC(N)=NC(Oc3c(F)c(F)c(F)c(F)c3F)=N1)CCC2 (stereo not shown) [6.181]	2	3	–	–	–	–
CC(C)N(C(C)C)S1=NC(Oc2c(F)c(F)c(F)c(F)c2F)=NC(N)=N1 (stereo not shown) [6.247]	3	4	–	–	–	–
CC1CCN(S2=NC(Oc3cc(F)ccc3F)=NC(N)=N2)CC(C)(C)C1 (stereo not shown) [6.249]	1	2	–	–	–	–
NC1=NS(N2CCC3CCCCC3CC2)=NC(Oc2c(F)c(F)c(F)c(F)c2F)=N1 (stereo not shown) [6.283]	1	4	–	–	–	–
NC1=NS(N2CCCCCCCCCC2)=NC(Oc2c(F)c(F)cc(F)c2F)=N1 (stereo not shown) [6.320]	2	3	–	–	–	–
